Reference: US9801873B2, “Methods for treating humans having brain cancer” (priority 2008, dated 2017)
Read-outs that look alike come from different tables or passages of the source.

Tests used:
[1] = cited from earlier work
A2780 ovarian tumors = settings: for tumor growth delay (TGD): 3 weekly intravenous injections; for activity in A2780 ovarian tumor model: 3 weekly intra-peritoneal administrations
Method: Anti-tumor efficacy was evaluated based on tumor growth delay (TGD) in mice and response rate in mice and humans.
Animals were weighed and monitored twice weekly, and tumor volumes were measured until an endpoint was met (2000 mm^3 or 60 days). Anti-tumor efficacy was evaluated based on tumor growth delay and response rate or partial or complete regression (PR or CR). In a PR, the tumor volume was 50% or less of its Day 1 volume for three consecutive measurements, and equal to or greater than 14 mm^3 for one or more of these three measurements. In a CR, the tumor volume was less than 14 mm^3 for three consecutive measurements. An animal with a CR response at termination was additionally classified as tumor-free survivior (TFS). A Student's T-test was performed to calculate statistical significance (p<0.05).

[2] = Phase 1 trial: plasma pharmacokinetics by LC-MS/MS and population PK model (SN-38 exposure and half-life); settings: plasma analyte after administration of Compound I
Method: Tumor responses were evaluated according to RECIST (Response Evaluation Criteria in Solid Tumors) criteria.

CCc1c2c(nc3ccc(OC(=O)N4CCC(N5CCCCC5)CC4)cc13)-c1cc3c(c(=O)n1C2)COC(=O)[C@]3(O)CC [irinotecan]
SN-38 plasma levels ([1]; higher doses (2.8, 4.6 mg/m^2 per day), dosing period of 63 days): 2 to 4 ng/mL
SN-38 plasma levels ([1]; lowest dose (1.4 mg/m^2 per day continuous iv infusion), up to 63 days): around 1 ng/ml
tumor growth delay (TGD) (A2780 ovarian tumors; 50 mg/kg): 12 days
tumor growth delay (TGD) (A2780 ovarian tumors; 100 mg/kg): 15 days
tumor growth delay (TGD) (A2780 ovarian tumors; 150 mg/kg): 16 days
tolerability in mice (A2780 ovarian tumors; 3 weekly intravenous doses of 50, 100, or 150 mg/kg): acute effects immediately after dosing (tremors, hypoactivity, ataxia, pilo-erection, increased stool production)
partial responses (PR) (A2780 ovarian tumors; highest dose (150 mg/kg), n=10): one partial response (PR)

N.N.[Cl][Pt][Cl] [cisplatin]
activity in A2780 ovarian tumor model (A2780 ovarian tumors): inactive

CCc1c2c(nc3ccc(O)cc13)-c1cc3c(c(=O)n1C2)COC(=O)[C@]3(O)CC [SN-38, 7-ethyl-10-hydroxy camptothecin]
T1/2 λz, In Responding Patients (range) [2]: 14.4 to 98.3 days
T1/2 λz, Population Estimate in Responding Patients [2]: 49.1 days

N.N.O=C([O-])C1(C(=O)[O-])CCC1.[Pt+2] [carboplatin]
activity in A2780 ovarian tumor model (A2780 ovarian tumors): inactive
